# Test results taken from patent US8828997B2, “2,3-dihydro-1H-imidazo(1,2-a)pyrimidin-5-one derivatives, preparation thereof, and pharmaceutical use thereof” (Sanofi, priority 2009, dated 2014).
# What was measured:
# [1] = test system: translocation of the LC3 protein in Hela GFP-LC3 cells; assay: Translocation of the LC3 protein in Hela human cells measured by image analysis cytometry (test C, autophagy); assay type: cell-based; conditions: Homo sapiens, HeLa, 2 h, EBSS + 10 μM hydroxychloroquine, cells with LC3 granulations, absolute IC50
# Procedure, shortened: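 HeLa clone stably expressing GFP-LC3, starved in EBSS with 10 μM hydroxychloroquine plus compound (10 nM to 1 μM range, 0.1% DMSO) for 2 h at 37 °C. After PFA fixation and Hoechst staining, LC3 translocation read by image analysis cytometry; IC50 from dose-response curves, mean of 2 independent experiments.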
# [2] = test system: P. falciparum (highly chloroquine-resistant strain Fcm29-Cameroon); assay: Antimalarial activity test (radioactive micromethod of Desjardins, tritiated hypoxanthine incorporation); assay type: cell-based; conditions: Plasmodium falciparum, Erythrocyte, infected human erythrocytes, 48 h
# Procedure, shortened: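 P. falciparum cultured in infected human erythrocytes (2% haematocrit, 1.5% parasitaemia) in RPMI 1640 with 5% human serum and 1% DMSO, exposed to compound for 48 h at 37 °C, 5% CO2. Tritiated hypoxanthine added at 24 h; growth inhibition versus drug-free incorporation, reported as % at 1 μM and 0.1 μM.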
smiles,measurement,setting,value
"COc1ccc(CCN2c3nc(N4CCOCC4)cc(=O)n3C[C@@]2(C)C(F)(F)F)cc1 [Example 1, (S)-1-[2-(4-Methoxyphenyl)ethyl]-2-methyl-7-morpholin-4-yl-2-trifluoromethyl-2,3-dihydro-1H-imidazo[1,2-a]pyrimidin-5-one]",IC50,[1],0.044 µM
same,inhibition at 0.1 µM,[2]; 0.1 μM,67%
same,inhibition at 1 µM,[2]; 1 μM,93%
